In ChEMBL document CHEMBL1150407, “High-throughput evaluation of relative cell permeability between peptoids and peptides” (Bioorg Med Chem, 2008):

Target: T1, Glucocorticoid receptor (Homo sapiens, UniProt P04150)
T1 sequence (P04150 whole entry): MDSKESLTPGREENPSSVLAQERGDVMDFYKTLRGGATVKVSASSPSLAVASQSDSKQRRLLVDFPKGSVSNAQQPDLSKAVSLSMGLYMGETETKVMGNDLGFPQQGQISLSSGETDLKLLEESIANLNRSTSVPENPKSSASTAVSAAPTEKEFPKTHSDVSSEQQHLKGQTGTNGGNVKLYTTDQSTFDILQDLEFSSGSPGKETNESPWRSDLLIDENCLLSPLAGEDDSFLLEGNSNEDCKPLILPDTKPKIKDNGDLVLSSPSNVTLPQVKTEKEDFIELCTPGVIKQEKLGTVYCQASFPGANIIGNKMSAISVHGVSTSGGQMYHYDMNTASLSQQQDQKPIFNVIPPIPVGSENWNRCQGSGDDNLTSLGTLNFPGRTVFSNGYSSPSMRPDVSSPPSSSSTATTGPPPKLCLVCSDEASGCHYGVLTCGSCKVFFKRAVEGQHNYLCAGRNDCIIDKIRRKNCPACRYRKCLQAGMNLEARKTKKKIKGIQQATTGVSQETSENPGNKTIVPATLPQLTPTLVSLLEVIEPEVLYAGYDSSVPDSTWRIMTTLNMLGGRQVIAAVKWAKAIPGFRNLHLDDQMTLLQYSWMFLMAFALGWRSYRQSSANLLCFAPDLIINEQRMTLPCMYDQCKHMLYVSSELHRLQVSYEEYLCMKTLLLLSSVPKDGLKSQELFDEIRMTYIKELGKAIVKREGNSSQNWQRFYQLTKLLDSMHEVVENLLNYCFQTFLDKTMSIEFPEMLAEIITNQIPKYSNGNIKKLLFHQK
Test: Inhibition of glucocorticoid receptor

| SMILES | IC50 |
| --- | --- |
| C[C@@H]1C[C@H]2[C@@H]3CCC4=CC(=O)C=C[C@]4(C)[C@@]3(F)[C@@H](O)C[C@]2(C)[C@@]1(O)C(=O)CSCCC(N)=O | 36 nM |
| C[C@@H]1C[C@H]2[C@@H]3CCC4=CC(=O)C=C[C@]4(C)[C@@]3(F)[C@@H](O)C[C@]2(C)[C@@]1(O)C(N)=O [OXDEX] | 600 nM |
